# Measured values reported in US20230102554A1 (GB002, INC., priority 2019, published 2023).
# Key:
# [1] = target: T1, Human PDGFRβ, cytoplasmic domain (GST-PDGFRβ) (Homo sapiens, UniProt P09619); test: Human PDGFRβ biochemical inhibition assay (off-chip Mobility Shift Assay)
# T1 construct: made in house
# Procedure, shortened: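 GST-tagged cytoplasmic domain (aa 557-1106) from baculovirus was incubated 1 h at room temperature with compound, CSKtide, ATP at Km and Mg²⁺ in HEPES buffer, pH 7.5. Phosphorylated and unphosphorylated peptide were separated by off-chip mobility shift, and the product ratio P/(P+S) gave percent inhibition.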
# [2] = target: T2, Human PDGFRα, cytoplasmic domain (GST-PDGFRα) (Homo sapiens, UniProt P16234); test: Human PDGFRα biochemical inhibition assay (off-chip Mobility Shift Assay)
# T2 construct: made in house
# T2 sequence (P16234 550-1089 T674I): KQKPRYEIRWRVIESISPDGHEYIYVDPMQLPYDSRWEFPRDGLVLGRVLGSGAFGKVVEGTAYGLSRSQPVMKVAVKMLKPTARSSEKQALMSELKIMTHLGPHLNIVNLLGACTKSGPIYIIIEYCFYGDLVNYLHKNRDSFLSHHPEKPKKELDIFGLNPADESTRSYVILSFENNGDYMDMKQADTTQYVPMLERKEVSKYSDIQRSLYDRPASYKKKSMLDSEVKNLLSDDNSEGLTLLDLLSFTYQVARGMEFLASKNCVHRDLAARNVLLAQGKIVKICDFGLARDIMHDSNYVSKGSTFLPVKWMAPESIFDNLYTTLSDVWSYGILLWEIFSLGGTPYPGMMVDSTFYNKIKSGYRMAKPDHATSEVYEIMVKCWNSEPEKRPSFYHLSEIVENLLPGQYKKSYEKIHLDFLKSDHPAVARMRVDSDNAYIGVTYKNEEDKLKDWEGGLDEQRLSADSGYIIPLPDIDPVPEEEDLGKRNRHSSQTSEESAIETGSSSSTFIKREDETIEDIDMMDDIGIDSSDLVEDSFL
# T1 sequence (P09619 with tags, fused parts or gaps): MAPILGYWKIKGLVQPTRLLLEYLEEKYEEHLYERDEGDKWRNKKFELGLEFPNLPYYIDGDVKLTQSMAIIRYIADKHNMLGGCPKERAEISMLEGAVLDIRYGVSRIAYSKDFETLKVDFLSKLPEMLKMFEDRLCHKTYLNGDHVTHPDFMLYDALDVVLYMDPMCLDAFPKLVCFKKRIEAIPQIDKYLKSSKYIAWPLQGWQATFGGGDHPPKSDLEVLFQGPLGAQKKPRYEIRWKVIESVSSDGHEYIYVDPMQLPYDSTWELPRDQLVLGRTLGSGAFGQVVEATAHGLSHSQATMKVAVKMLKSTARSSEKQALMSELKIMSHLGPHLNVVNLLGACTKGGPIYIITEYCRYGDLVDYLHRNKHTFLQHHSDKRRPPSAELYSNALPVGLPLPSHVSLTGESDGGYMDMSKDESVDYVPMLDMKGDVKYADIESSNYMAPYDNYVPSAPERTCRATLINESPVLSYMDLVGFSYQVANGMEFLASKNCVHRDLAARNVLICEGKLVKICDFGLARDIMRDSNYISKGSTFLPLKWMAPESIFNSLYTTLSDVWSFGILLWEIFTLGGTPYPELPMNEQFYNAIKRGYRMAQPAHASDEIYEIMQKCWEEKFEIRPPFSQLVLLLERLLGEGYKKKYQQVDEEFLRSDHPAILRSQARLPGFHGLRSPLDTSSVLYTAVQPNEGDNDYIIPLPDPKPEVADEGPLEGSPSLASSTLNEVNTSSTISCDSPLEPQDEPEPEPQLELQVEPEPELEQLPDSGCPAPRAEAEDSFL
Structure (SMILES),IC50 [1] [nM],IC50 [2] [nM]
"CCn1cc2ncc(N[C@@H](C)c3cccc(NC(=O)c4ccc(CN(C)C)cc4)c3)nc2n1 [Compound 373, (S)-4-((dimethylamino)methyl)-N-(3-(1-((2-ethyl-2H-pyrazolo[3,4-b]pyrazin-6-yl)amino)ethyl)phenyl)benzamide]",≥ 1000,< 300
"CCn1cc2ncc(N[C@@H](C)c3cc(NC(=O)Cc4ccc(C5CC5)nc4)ccc3C)nc2n1 [Compound 665, (S)-2-(6-cyclopropylpyridin-3-yl)-N-(3-(1-((2-ethyl-2H-pyrazolo[3,4-b]pyrazin-6-yl)amino)ethyl)-4-methylphenyl) acetamide]",≥ 1000,< 300
"Cc1cc(C(=O)Nc2cccc([C@H](C)Nc3cnc4cnn(C)c4n3)c2)cnc1N1CC2(COC2)C1 [Compound 259, (S)-5-methyl-N-(3-(1-((1-methyl-1H-pyrazolo[3,4-b]pyrazin-6-yl)amino)ethyl)phenyl)-6-(2-oxa-6-azaspiro[3.3]heptan-6-yl) nicotinamide]",< 300,< 300
"Cc1c[nH]c2ncc(N[C@@H](C)c3cccc(NC(=O)c4cnc(C(F)(F)F)s4)c3)nc12 [Compound 572, (S)-N-(3-(1-((7-methyl-5H-pyrrolo[2,3-b]pyrazin-2-yl)amino)ethyl)phenyl)-2-(trifluoromethyl)thiazole-5-carboxamide]",300 to 1000,≥ 1000
"C[C@H](Nc1cnc2[nH]ccc2n1)c1cccc(NC(=O)c2cnn(C3CCC3)c2)c1 [Compound 598, (S)-N-(3-(1-((5H-pyrrolo[2,3-b]pyrazin-2-yl)amino)ethyl)phenyl)-1-cyclobutyl-1H-pyrazole-4-carboxamide]",< 300,< 300
"CCOc1ncc(C(=O)Nc2cccc([C@H](C)Nc3cnc4cn(CC)nc4n3)c2)s1 [Compound 362, (S)-2-ethoxy-N-(3-(1-((2-ethyl-2H-pyrazolo[3,4-b]pyrazin-6-yl)amino)ethyl)phenyl)thiazole-5-carboxamide]",300 to 1000,< 300
"CCn1cc2ncc(N[C@@H](C)c3cc(NC(=O)c4cnc(N5CCCC5)c(C)c4)ccc3F)nc2n1 [Compound 336, (S)-N-(3-(1-((2-ethyl-2H-pyrazolo[3,4-b]pyrazin-6-yl)amino)ethyl)-4-fluorophenyl)-5-methyl-6-(pyrrolidin-1-yl) nicotinamide]",< 300,< 300
"Cc1cncc(C(=O)Nc2cccc([C@H](C)Nc3cnc4[nH]nc(Cl)c4n3)c2)c1 [Compound 550, (S)-N-(3-(1-((3-chloro-1H-pyrazolo[3,4-b]pyrazin-5-yl)amino)ethyl)phenyl)-5-methylnicotinamide]",< 300,< 300
"Cc1n[nH]c2ncc(N[C@@H](C)c3cccc(NC(=O)c4ccc(C(F)F)s4)c3)nc12 [Compound 539, (S)-5-(difluoromethyl)-N-(3-(1-((3-methyl-1H-pyrazolo[3,4-b]pyrazin-5-yl)amino)ethyl)phenyl)thiophene-2-carboxamide]",< 300,< 300
"Cc1n[nH]c2ncc(N[C@@H](C)c3cccc(NC(=O)c4cncc(C(F)F)c4)c3)nc12 [Compound 532, (S)-5-(difluoromethyl)-N-(3-(1-((3-methyl-1H-pyrazolo[3,4-b]pyrazin-5-yl)amino)ethyl)phenyl)nicotinamide]",< 300,< 300
"CCn1cc2ncc(N[C@@H](C)c3cccc(NC(=O)Nc4ccc(N(C)C)nc4)c3)nc2n1 [Compound 739, (S)-1-(6-(dimethylamino)pyridin-3-yl)-3-(3-(1-((2-ethyl-2H-pyrazolo[3,4-b]pyrazin-6-yl)amino)ethyl)phenyl)urea]",≥ 1000,< 300
"CCn1cc2ncc(N[C@@H](C)c3cc(NC(=O)c4ccc(CN5CCN(C)CC5)c(C)c4)ccc3C)nc2n1 [Compound 524, (S)-N-(3-(1-((2-ethyl-2H-pyrazolo[3,4-b]pyrazin-6-yl)amino)ethyl)-4-methylphenyl)-3-methyl-4-((4-methylpiperazin-1-yl)methyl)benzamide]",< 300,< 300
"COc1ccc(-n2ccc3ncc(N[C@@H](C)c4cccc(NC(=O)c5cncc(C)c5)c4)nc32)cc1OC [Compound 87, (S)-N-(3-(1-((5-(3,4-dimethoxyphenyl)-5H-pyrrolo [2,3-b]|pyrazin-3-yl)amino)ethyl)phenyl)-5-methylnicotinamide]",< 300,< 300
"Cc1cncc(C(=O)Nc2cccc([C@H](C)Nc3cnc4[nH]c(-c5cnn(C)c5)nc4c3)c2)c1 [Compound 602, (S)-5-methyl-N-(3-(1-((2-(1-methyl-1H-pyrazol-4-yl)-3H-imidazo[4,5-b]pyridin-6-yl)amino)ethyl)phenyl) nicotinamide]",< 300,< 300
"CCn1cc2ncc(N[C@@H](C)c3cccc(NC(=O)c4cnc(C#N)c(C)c4)c3)nc2n1 [Compound 289, (S)-6-cyano-N-(3-(1-((2-ethyl-2H-pyrazolo[3,4-b]pyrazin-6-yl)amino)ethyl)phenyl)-5-methylnicotinamide]",300 to 1000,< 300
"CCn1cc2ncc(N[C@@H](C)c3cc(NC(=O)Cc4cnc(C)c(F)c4)ccc3F)nc2n1 [Compound 706, (S)-N-(3-(1-((2-ethyl-2H-pyrazolo[3,4-b]pyrazin-6-yl)amino)ethyl)-4-fluorophenyl)-2-(5-fluoro-6-methylpyridin-3-yl) acetamide]",≥ 1000,< 300
"CCn1cc2ncc(N[C@@H](C)c3cc(NC(=O)Cc4cccc(C(F)(F)F)c4)ccc3F)nc2n1 [Compound 636, (S)-N-(3-(1-((2-ethyl-2H-pyrazolo[3,4-b]pyrazin-6-yl)amino)ethyl)-4-fluorophenyl)-2-(3-(trifluoromethyl)phenyl) acetamide]",< 300,< 300
"C[C@H](Nc1cnc2cnn(C)c2n1)c1cccc(NC(=O)c2ccn(CC(F)F)n2)c1 [Compound 158, (S)-1-(2,2-difluoroethyl)-N-(3-(1-((1-methyl-1H-pyrazolo[3,4-b]pyrazin-6-yl)amino)ethyl)phenyl)-1H-pyrazole-3-carboxamide]",300 to 1000,< 300
"Cc1cncc(C(=O)Nc2cccc([C@H](C)Nc3cnc4cc(C(F)(F)F)ccc4n3)c2)c1 [Compound 35, (S)-5-methyl-N-(3-(1-((6-(trifluoromethyl)quinoxalin-2-yl)amino)ethyl)phenyl) nicotinamide]",< 300,< 300
"CCn1cc2ncc(N[C@@H](C)c3cccc(NC(=O)c4ccc(CN5CCCC5)nc4)c3)nc2n1 [Compound 388, (S)-N-(3-(1-((2-ethyl-2H-pyrazolo[3,4-b]pyrazin-6-yl)amino)ethyl)phenyl)-6-(pyrrolidin-1-ylmethyl) nicotinamide]",≥ 1000,≥ 1000
"CCn1cc2ncc(N[C@@H](C)c3cccc(NC(=O)Cc4ccc(F)c(C)n4)c3)nc2n1 [Compound 699, (S)-N-(3-(1-((2-ethyl-2H-pyrazolo[3,4-b]pyrazin-6-yl)ainino)ethyl)phenvl)-2-(5-fluoro-6-methylpyridin-2-yl) acetamide]",300 to 1000,< 300
"Cc1cncc(C(=O)Nc2cccc([C@H](C)Nc3cncc4c3cnn4C)c2)c1 [Compound 750, (S)-5-methyl-N-(3-(1-((1-methyl-1H-pyrazolo[3,4-c]pyridin-4-yl)amino)ethyl)phenyl)nicotinamide]",≥ 1000,≥ 1000
"CCn1cc2ncc(N[C@@H](C)c3cccc(NC(=O)c4ccc(CN5CCOCC5)c(Cl)c4)c3)nc2n1 [Compound 416, (S)-3-chloro-N-(3-(1-((2-ethyl-2H-pyrazolo[3,4-b]pyrazin-6-yl)amino)ethyl)phenyl)-4-(morpholinomethyl)benzamide]",< 300,< 300
"CCn1cc2ncc(N[C@@H](C)c3cc(NC(=O)c4cnn(C5CC5)c4)ccc3F)nc2n1 [Compound 312, (S)-1-cyclopropyl-N-(3-(1-((2-ethyl-2H-pyrazolo[3,4-b]pyrazin-6-yl)amino)ethyl)-4-fluorophenyl)-1H-pyrazole-4-carboxamide]",< 300,< 300
"Cc1cncc(C(=O)Nc2cc(F)cc([C@H](C)Nc3cnc4cnn(C)c4n3)c2)c1 [Compound 171, (S)-N-(3-fluoro-5-(1-((1-methyl-1H-pyrazolo[3,4-b]pyrazin-6-yl)amino)ethyl)phenyl)-5-methylnicotinamide]",< 300,< 300
"Cc1cncc(C(=O)Nc2cccc([C@H](C)Nc3cnc4cc(C)oc4n3)c2)c1 [Compound 17, (S)-5-methyl-N-(3-(1-((6-methylfuro[2,3-b]pyrazin-3-yl)amino)ethyl)phenyl)nicotinamide]",< 300,< 300
"CCOc1ncc(C(=O)Nc2cccc([C@H](C)Nc3cnc4cn(CC)nc4n3)c2)cc1C [Compound 314, (S)-6-ethoxyN-(3-(1-((2-ethyl-2H-pyrazolo[3,4-b]pyrazin-6-yl)amino)ethyl)phenyl)-5-methylnicotinamide]",< 300,< 300
"C[C@H](Nc1cnc2cnn(C)c2n1)c1cccc(NC(=O)c2cnc3cnn(C)c3c2)c1 [Compound 48, (S)-1-methyl-N-(3-(1-((1-methyl-1H-pyrazolo[3,4-b]pyrazin-6-yl)amino)ethyl)phenyl)-1H-pyrazolo[4,3-b] pyridine-6-carboxamide]",< 300,< 300
"CSc1ccc(C(=O)Nc2cccc([C@H](C)Nc3cnc4cnn(C)c4n3)c2)cn1 [Compound 218, (S)-N-(3-(1-((1-methyl-1H-pyrazolo[3,4-b]pyrazin-6-yl)amino)ethyl)phenyl)-6-(methylthio)nicotinamide]",< 300,< 300
"CSc1cccc(C(=O)Nc2cccc([C@H](C)Nc3cnc4cnn(C)c4n3)c2)c1 [Compound 224, (S)-N-(3-(1-((1-methyl-1H-pyrazolo[3,4-b]pyrazin-6-yl)amino)ethyl)phenyl)-3-(methylthio)benzamide]",< 300,< 300
